The subject of one data set is R116 cell line. The data set is described as follows: MTT cytotoxicity assay in R116 cells. It counts as cell-based. Conditions: persistently resistant clone R116, three days. As for the experimental part:
(§1) Three days later, drug cytotoxicity was quantitated with a standard MTT assay in which the uptake and metabolism of 3-[4,5-dimethylthiazol-2-yl]2,5-dephenyltetrazolium bromide (MTT) by cells was measured (14). The amount of formazan produced in 2 hours was determined by dissolving the product in 100% DMSO and then measuring the absorbance at 570 nm.
(§2) HeLa-T4 is the parental cell line.
(§3) Cells sensitive, parental HT4 (open circle), S1 (solid square), Spool (solid circle) and refractory, R116 (open square) were grown in the presence of various concentrations of FUdR. Three days latter, cell viability was determined by the MTT reduction method.

Data set [1] concerns recombinant HIV, recombinant MLV, or replication-competent HIV. The class given is cell-based. The source says: The presence of a selectable marker gene in the recombinant HIV allowed the isolation of cells infected by the recombinant viruses in the presence of d4T. These cells were characterized by infection with both additional recombinant viruses and by replication-competent viruses.
(§4) Table 6. Colony formation and persistent resistance after Hela-T4 cell infection with MLV-neo virus in the presence and absence of various antiviral agents.

Another data set has as its system HIV-1 IIIB. Put plainly: HIV-1 IIIB infection of Jurkat JE6.1 cell populations, AZT IC50 with FUdR (RT activity). Particulars: for IC50: Human immunodeficiency virus 1, IIIB, Jurkat, 144 h, concentration of AZT for 50% inhibition of RT activity at day 6, F = μM FUdR. The class given is cell-based. As for the experimental part:
HIV-1 production in infected, cultures was determined by a ^32P-based assay as described (34). RT activity was determined by […] of ^32P bound to the DE81 paper by using a Molecular Dynamics phosphorimager. The results are reported as pixel units per microliter of the reaction mixture.
In these experiments, three populations of cells were studied.

A further data set concerns HIV-gpt. Put plainly: HIV-gpt colony formation after infection of HeLa-T4 cells in the presence of antiretroviral agents. Particulars: for Number of colonies +AZT: colonies by day 10. The class given is cell-based.
A further data set has as its system HIV-LacZ. It counts as cell-based.
For another data set, the system named is MLV-neo. Put plainly: MLV-neo colony formation in the presence of antiviral agents. The class given is cell-based, Moloney Leukemia virus. Particulars: Hela-T4, AZT 10 uM, DDI 50 uM, DDC 10 uM, D4T 50 uM, control 9050. As to the method:
Production of recombinant HIV-gpt has been described elsewhere (26). The amphotropic cell line PA317 was transfected with the recombinant murine retrovirus pLXSN (36) and was used as the source of the recombinant MLV-neo virus. Stock preparations of HIV-1IIIB were harvested from H9 cells by the “shake off method” (13). Stock virus infectivity was determined by end-point dilution in MT-2 cells (32). Virus induced cytopathic effect was scored 7 days post-infection and the TCID50 was calculated with the Reed and Muench equation (33).
To confirm this high rate of infection in the absence of genetic drug resistance, we used several other recombinant viruses and host cells. […] A high rate of infection of Jurkat cells in the presence of d4T has also been seen.
Table 5. HIV-gpt produced in COS cells by transfection with plasmids (plasmid derived) is compared with HIV-gpt produced by, rescue from H9/HIV-gpt cell line after infection with HIV-IIIB and cells infected with MLV-neo.
as §4

Data set [2] deals with HIV-1IIIB. Particulars: same AZT concentration as for the persistently resistant clone.
Data set [3] concerns HIV-1IIIB. The data set is described as follows: HIV-1IIIB infection of S1 and R116 cells with AZT and FUdR (RT activity). It counts as cell-based. Particulars: 0.1 μM AZT. As to the method: Infected cells were isolated in gpt selective media and expanded into cell lines. […] Cell line S1 is a control cell line.
Cell free supernatants were assayed for RT activity every two days. Results are the mean of triplicate cultures. Standard deviations were <15%.

A short description of data set [4]: HPLC analysis of phosphorylated AZT metabolites in clones incubated with 3H-AZT. Particulars: 3H-AZT for 4 hours, HPLC. The class given is in vitro ADME. As to the method: Cell lines were incubated with ^3H-thymidine or ^3H-AZT for 4 hours. Dried methanol extracts of the clones were redissolved in 60 μof distilled water and centrifuged to remove undissolved material. Twenty microliters of the sample was injected and separated on a 10×100 mm Rainin Hydropore anion exchange column. The nucleosides were eluted from the column with a linear gradient of potassium phosphate (5 mM to 1 M, pH4.0) at a flow rate of 1 ml/min. The samples were collected (0.5 ml), mixed with 5 ml Packard scintillation fluid, and quantitated using a liquid scintillation counter. Phosphorylated derivatives of thymidine and AZT were identified with authentic standards.
Pool sizes were determined by incubation of cells with ^3H-AZT for 4 hours followed by cellular extraction and HPLC. The numbers are expressed as pmoles/10^6 cells. The numbers in parentheses represent the percentage of total radioactive species in that pool.

The nature of data set [5]: MTT cytotoxicity assay in R116 cells. The class given is cell-based. Conditions: human, R116 cell line, three days, FIG. 8, read-out: ED50 (cytotoxicity). As to the method: as §1, §2, §3
A short description of a further data set: in vitro. Conditions: human.

Consider two compounds from patent US6576622B1, “Drug combination for the treatment of viral diseases” (University of Medicine & Dentistry of New Jersey, priority 1995, dated 2003).

As for `Cc1cn([C@H]2C[C@H](N=[N+]=[N-])[C@@H](CO)O2)c(=O)[nH]c1=O` [AZT, 3′-Azido-3′-deoxythymidine], the “cytotoxic concentration that killed 50%” value in the data set on R116 cell line is listed as “greater than 1 mM”. Also, in [1], the “subset of cells persistently refractory to d4T that were also refractory to the antiviral effects of AZT” value is recorded as “approximately 20%”. In addition, the Frequency in data set [1] (frequency of persistently resistant colonies, Hela-T4, MLV-neo) was 2.2 × 10^−4; in the data set with HIV-LacZ (frequency of persistently resistant colonies, HeLa-T4, plasmid derived HIV-gpt), 3.4 × 10^−4. For the same compound, the IC50 (usually the concentration that inhibits the measured activity by half) was determined as 0.6 µM in the data set on HIV-1 IIIB (JE6.1AZTR cells (refractory to AZT)), 0.2 µM in the data set on HIV-1 IIIB (JE6.1Con cells (control)) and 0.3 µM in the data set with HIV-1 IIIB (JE6.1 cells). Moreover, the “increase AZT IC50” value in the data set with HIV-1 IIIB (JE6.1AZTR entire population) is on record as 2 fold. In the data set on HIV-gpt (HeLa-T4, plasmid derived HIV-gpt (COS cells), AZT 10 μM, DDI 50 μM, D4T 50 μM, no drug control 8800), the Number of colonies stood at 12. Moreover, the “Frequency of colony formation in the presence of AZT” value in the data set on HIV-gpt (HeLa-T4 cells, 10 μM AZT, HIV-gpt by rescue with HIV-1) is reported as 5.0 × 10^−4; in the data set on HIV-gpt (HeLa-T4 cells, 10 μM AZT, plasmid-derived (COS cells) HIV-gpt) it was 5.2 × 10^−4. Also, the “Number of colonies +AZT” value worked out at 9 in the data set with HIV-gpt (HeLa-T4 cells, 10 μM AZT, HIV-gpt by rescue with HIV-1, −AZT 1.8 × 10^4) and 16 with HIV-gpt (HeLa-T4 cells, 10 μM AZT, plasmid-derived (COS cells) HIV-gpt, −AZT 3.1 × 10^4). Moreover, in the data set on HIV-gpt (HeLa-T4 cells, 10 μM AZT, similar with the two preparations of HIV-gpt), the “prevalence of colony formation after infection in the presence of AZT” value is given as ~5×10^−4. For the same compound, the “inhibition of HIV-LacZ infection” value in the data set with HIV-LacZ (10 μM AZT, nine of twelve cell lines, like wild type HeLa-T4 cells) is “complete inhibition of infection”. For the same compound, the No. of colonies in the data set with MLV-neo was 12. In addition, in the data set with HIV-1IIIB [2], the “inhibition of infection of control cells by replication-competent HIV” value is reported as “virtually complete inhibition”. Besides, the “HIV replication in the presence of drug” value in the data set on HIV-1IIIB [3] (R116 cell line refractory to AZT, FIG. 7B) is on record as “significant HIV replication”. In the data set on HIV-1IIIB [3] (control S1 cell line, multiplicity of infection of 1, FIG. 7A), the antiviral efficacy entry is “potent antiviral efficacy”. For the same compound, the values for the concentration in cells in [4] (R116 (“persistently resistant”) cell line) and in data set [4] (S1 (sensitive) cell line) were 0.0155 pmoles/10^6 cells and 0.0206 pmoles/10^6 cells, respectively.

With `O=c1[nH]c(=O)n([C@H]2C[C@H](O)[C@@H](CO)O2)cc1F` [FUdR, 2′-deoxy-5-fluorouridine], the EC50 at 3 days turned out to be 700 nM in [5] and 7000 nM in the data set “in vitro”. For the same compound, the “antiviral activity when used by itself” value with HIV-1 IIIB (in all of these studies) is “moderate antiviral activity”.
